Results reported in US7875604B2, “Compounds that inhibit HIV particle formation” (University of Virginia Patent Foundation, priority 2004, dated 2011).
Read-outs that look alike come from different tables or passages of the source.

Tests used:
MT4 cells = experiment: MTS-based toxicity assay in MT-4 T cell line; conditions: Table 1, read-out: TC50 (the source's name)
Experimental: The dose response assay was performed as follows
MTS-based toxicity assays were performed in parallel to the 3 and 6 point dose response assays.
The six point dose assay in 5BD.1 cells was used to calculate an IC50 for the compounds and data from the MT-4 toxicity assay allowed a TC50 to be calculated.

[1] = tested on: U1 cells latently infected with HIV-1; experiment: U1 latency activation assay (TNF-α induced, supernatant reverse transcriptase); assay type: cell-based; conditions: for TI (TC50/IC50): Table 6
Experimental: U1 cells were obtained from the AIDS Research and Reference Reagent Program and maintained under standard culture conditions in RPMI 1640 supplemented with 10% fetal bovine serum (heat inactivated), 2 mM L-glutamine, 100 U/mL penicillin and 100 μg/mL streptomycin. U1 cells are derived from the histocytic leukemia cell line U937, and contain an integrated copy of a cytokine and/or phorbol inducible provirus (HIV-1IIIB). Cultures were maintained in such a way as to ensure exponential growth of the populations. Addition of TNF-α to the cell culture induces HIV-1, so that inhibition of virus production indicates an inhibition of a post-integration function of the HIV-1 life cycle. This is where an inhibitor of Rev function would be expected to act. […]
(§1) At the time of the assay, cells were collected by centrifugation and counted by hemacytometer. If cell viability by Trypan Blue dye exclusion was less than 70% the assay was terminated. The cells were adjusted to 5×10^4 cells/mL and 100 μL placed in 96 well plates with 100 μL media containing a final concentration of 5 ng/mL TNF-α and the test compound. Cultures were incubated for 3 days and supernatants harvested. Compound toxicity was determined by MTS dye reduction. Virus expression was measured by supernatant reverse transcriptase activity.
Reverse transcriptase was assayed to measure virus particle release as described above for the PBMC assay.
(§2) Compounds were tested in the U1 latency assay using the maximum high-test concentration possible based on the supplied stocks which are listed in table 3. Compounds were tested using the maximum high-test concentration possible based on the supplied stocks. Compounds were prepared at a 2× high-test concentration by combining drug stock with tissue culture media at a ratio of 5 μL of drug to 995 μL of media. This 2× high-test sample was subsequently serially diluted in tissue culture media using 1/2 log dilutions. This series of 2× concentrated drug was subsequently diluted 1:1 by combining with an equal volume of cells in media in the 96-well plates used for the assay. Temacrazine a known inhibitor of HIV transcription was used as a control compound that is active in the post-integration part of the HIV life cycle.
(§3) Compounds were tested using the maximum high-test concentration possible based on the supplied stocks. Compounds were prepared at a 2× high-test concentration by combining drug stock with tissue culture media at a ratio of 5 μL of drug to 995 μL of media. This 2× high-test (HT) sample was subsequently serially diluted in tissue culture media using 1/2 log dilutions. This series of 2× concentrated drug was subsequently diluted 1:1 by combining with an equal volume of cells in media in the 96-well plates used for the assay.

HIV-1 Rev = biological target: T1, HIV-1 Rev (Human immunodeficiency virus type 1 group M subtype B, UniProt P04618); experiment: cell-based; conditions: for TI (TC50/IC50): Rev assay
T1 construct: expressed in transfected cells
T1 sequence (P04618 whole entry, looked up): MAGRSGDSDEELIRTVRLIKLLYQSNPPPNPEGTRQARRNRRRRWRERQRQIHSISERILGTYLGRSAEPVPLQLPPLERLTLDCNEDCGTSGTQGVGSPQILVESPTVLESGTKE
Experimental: The eight compounds listed in Table 1 were also tested in an assay that measured HIV-1 Rev function. […] The reporter used for these assays is the Renilla Luciferase protein, which is an enzyme that produces detectable light when mixed with certain chemicals. For this assay, a cell line has been developed in which the production of the reporter by the cells requires the function of HIV-1 Rev. Therefore, if a drug candidate inhibits the function of Rev, it decreases the amount of the reporter produced by the cells. By using Renilla Luciferase as the reporter, the inhibition of Rev is easily detected as a decrease in the amount of light produced by the cells when mixed with the appropriate chemicals.
as §3, with “tested in the Rev assay” for “tested”, “stocks as shown in Table 3.” for “stocks.”, “high-test” for “high-test (HT)”

[2] = MTS staining for cell viability in U1 cell assay; assay type: cell-based; conditions: human, U1 cells stimulated with TNF-α, read-out: TC50
Experimental: as §1
At assay termination, the assay plates were stained with the soluble tetrazolium-based dye MTS (CellTiter 96 Reagent, Promega) to determine cell viability and quantify compound toxicity as described for the PBMC assay.
as §2, §3

[3] = 50% inhibition of Renilla Luciferase, 24 hours, HeLa reporter line, read-out: IC50
[4] = Human immunodeficiency virus 1, 72 h, U1 cell assay, Table 6, 5 ng/mL TNF-α, 3 days, RT activity

| Compound | CC50 (MT4 cells) | TI (TC50/IC50) ([1]; U1 cell assay) | IC50 ([1]; U1 cell assay, Table 6, 5 ng/mL TNF-α, 3 days, RT activity) | IC50 (HIV-1 Rev; [3]) | TI (TC50/IC50) (HIV-1 Rev) | IC50 [1, 4] | IC50 ([1]; Human immunodeficiency virus 1, U1 cell assay, analogs, Table 8) | CC50 at 3 days ([2]; Table 6, MTS) | CC50 at 3 days ([2]; analogs, Table 8, MTS) | IC50 (HIV-1 Rev) |
| --- | --- | --- | --- | --- | --- | --- | --- | --- | --- | --- |
| 2-chloro-N-(4-methylphenyl)-4-(trifluoromethyl)-1,3-thazole-5-carboxamide [Compound 91161] | 18 µM | 1.35 | 16.5 µM | 9.73 µM | >4.06 |  |  |  |  |  |
| CCc1c(C(=O)Nc2ccccc2)c(C)nc2sc(C(N)=O)c(N)c12 [Compound 75168, 3-amino-4-ethyl-6-methyl-N˜5˜-phenylthieno[2,3-b]pyridine-2,5-dicarboxamide] | > 100 µM |  |  | 2.42 µM | 3.27 |  |  |  |  |  |
| COc1ccc2cc3c(N)n[nH]c3nc2c1 [Compound 89246, 7-methoxy-1H-pyrazolo[3,4-b]quinolin-3-ylamine] | 20 µM | 102 |  | 0.48 µM | 17.52 | 0.24 µM | < 0.172 µM | 24.6 µM | 29 µM |  |
| CCc1c(C)nc2sc(C(N)=O)c(N)c2c1C [Compound 103833, 3-amino-5-ethyl-4,6-dimethylthieno[2,3-b]pyridine-2-carboxamide] | 32 µM | >94 |  |  |  | 0.4 µM |  | > 37.6 µM |  | 1.07 µM |
| COc1ccc2nc(C(F)(F)F)c(C#N)c(N)c2c1 [Compound 104366, 4-amino-6-methoxy-2-(trifluoromethyl)-3-quinolinecarbonitrile] | 28 µM | >49.6 |  | 2.24 µM | 7.68 | < 0.25 µM |  | 12.4 µM |  |  |
| CS(=O)(=O)c1ncc(-c2ccc(Br)cc2)cn1 [Compound 107129, -(4-bromophenyl)-2-(methylsulfonyl)pyrimidine] | 10 µM |  |  | 7.48 µM | 4.13 | > 53 µM |  | > 53 µM |  |  |
| COc1cccc(NC(=O)c2cc(Cl)nnc2Cl)c1 [Compound 107740, 3,6-dichloro-N-(3-methoxyphenyl)-4-pyridazinecarboxamide] | 50 µM | >26.6 |  | 8 µM | 2.31 | 1.1 µM |  | > 29.3 µM |  |  |
| Fc1ccc(Nc2ncnc3ccccc23)cc1Cl [Compound 109020, N-(3-chloro-4-fluorophenyl)-N-(4-quinazolinyl)amine] |  | >151 |  |  | >4.54 | 0.27 µM |  | > 40.8 µM |  | 8.98 µM |
